# Data taken from US20250195679A1, “ANTIBODY-DRUG CONJUGATE AND USE THEREOF” (SHANGHAI HUAOTA BIOPHARMACEUTICAL CO., LTD., priority 2022, published 2025).
# Assays:
# [1] = test system: MDA-MB-231 human breast cancer cells; assay: MDA-MB-231 triple-negative breast cancer CDX mouse efficacy model (Example 8); type: in vivo, NPG mice; details: 5 mg/kg i.p. BIW, 8 doses, FIG. 8
# Method: NPG mice were used to establish an MDA-MB-231 triple-negative breast cancer animal model for assaying the efficacy of the test antibodies. The MDA-MB-231 human breast cancer cells used in this example were incubated in an L-15 medium supplemented with 10% FBS in an incubator at 37° C. without CO2. Before continuous cell culturing for ten generations, about 5.0×10^6 MDA-MB-231 cells were suspended in 100 μL of PBS and then mixed uniformly with an equal volume of Matrigel. The mixture was then inoculated by subcutaneous injection into NPG humanized mice on the right side of the back near the axilla, with an inoculation volume of about 200 μL. The mice were anesthetized with 2%-5% isoflurane prior to the inoculation. On the day of inoculation, 1.0×10^7 PBMCs (100 μL) were injected via the tail vein. When the tumors grew to an average size of about 50-80 mm^3, the […] tumor-bearing mice were randomly divided into 7 groups of 6 based on tumor volume and body weight. […] Oleclumab is an anti-CD73 monoclonal antibody developed by AstraZeneca, currently in Phase 2 clinical trials. The amino acid sequence of the heavy chain of 900201 is as set forth in SEQ ID NO. 43, and the amino acid sequence of the light chain of 900201 is as set forth in SEQ ID NO. 44.
# [2] = test system: BxPC-3 human pancreatic cancer cells; assay: BxPC3 CDX pancreatic cancer mouse efficacy model; type: in vivo, NPG mice; details: 5 mg/kg i.p. BIW, 6 doses, FIG. 7
# Method: NPG mice were used to establish a BxPC-3 pancreatic cancer animal model for assaying the efficacy of the test antibodies. The BxPC-3 human pancreatic cancer cells used in this example were incubated in an RPMI-1640 medium supplemented with 10% FBS in an incubator at 37° C. with 5% CO2. Before continuous cell culturing for ten generations, 100 μL of PBS containing about 1×10^7 BxPC-3 cells was mixed uniformly with an equal volume of Matrigel. The mixture was then inoculated by subcutaneous injection into 18 NPG mice on the right side of the back near the axilla, with an inoculation volume of about 200 μL. The mice were anesthetized with 2%-5% isoflurane prior to the inoculation. On the day of inoculation, 1.0×10^7 PBMCs (100 μL) were injected via the tail vein. When the tumors grew to an average size of about 50-80 mm^3, the 18 tumor-bearing mice were randomly divided into 3 groups of 6 based on tumor volume and body weight.
# Oleclumab is an anti-CD73 monoclonal antibody developed by AstraZeneca, currently in Phase 2 clinical trials. Uliledlimab is an anti-CD73 monoclonal antibody developed by I-Mab Biopharma, currently in Phase 1 clinical trials. The amino acid sequence of the heavy chain of 900543 is as set forth in SEQ ID NO. 45, and the amino acid sequence of the light chain of 900543 is as set forth in SEQ ID NO. 46. […]
Substance,inhibition of growth of MDA-MB-231 breast cancer [1],inhibition of growth of BxPC-3 pancreatic cancer [2]
"900201: negative control antibody, which does not bind to the CD73 antigen; heavy chain SEQ ID NO. 43, light chain SEQ ID NO. 44 [compound 900201, reference compound]",could not inhibit the tumor growth,–
"900543: negative control antibody, which does not bind to the CD73 antigen; heavy chain SEQ ID NO. 45, light chain SEQ ID NO. 46 [compound 900543, reference compound]",–,could not inhibit tumor growth
